{"source": "patent US20200370088A1", "about": "“KIT AND METHOD FOR ANTIBIOTICS SUSCEPTIBILITY TESTING WITH THE AGAR DILUTION METHOD” ([…].R.L., priority 2019, published 2020)", "tested_on": "test bacteria", "assay": "Agar dilution MIC test in 12-well agarized panel (FIG. 2A-E)", "assay_type": "cell-based", "conditions": "for MIC: agar dilution test", "protocol": "In alternative embodiments, the MIC in agar is determined by the steps of inoculating a suspension of the bacterium to be tested in a plurality of agarized wells with serial two-fold dilutions of antibiotic. The test bacteria are inoculated on the agarized wells. These inoculated wells are incubated at 35-37° C. overnight. The MIC is defined as the minimum antibiotic concentration that yielded complete inhibition of the bacteria on the wells. The steps are illustrated in FIG. 1 and FIGS. 2a-2e.\nIn alternative embodiments of methods as provided herein different bacterial strains such as Staphylococcus spp., Enterococcus spp., Enterobactariaceae and corresponding mixtures can be inoculated onto the surface of the agarized wells prepared according to Ref. (1) and containing various concentrations of antibiotic. The inoculated wells are incubated at about 35-37° C. for a fixed time, or in alternative embodiment for about 15-24 hours. Depending on the concentration of the antibiotic, bacterial growth results and is clearly visible on the wells. Generally, in the wells having the high concentration of antibiotic, the antibiotic inhibits the bacterial growth while on the wells having low antibiotic concentrations distinctly visible and typical growth is observed. The lowest antibiotic concentration which serves to inhibit the growth of the bacteria on the wells is defined as the minimal inhibitory concentration (MIC).\nWith particular reference to the FIGS. 2a-2e, the therein illustrated kit is a 12-well panel containing the antibiotic incorporated into an agar medium in different concentrations, i.e. 11 two-fold dilutions (0.25-256 μg/ml). The procedure used to carry out the test is the agar dilution (AD)method for the antimicrobial susceptibility testing of the antibiotic and is according to the one recommended by CLSI and EUCAST (Ref. 1-4) standards but in a simpler and less time-consuming way and with highly reproducible results.\nAll wells are inoculated with a standardized microbial suspension.\nAfter incubation in thermostat (as described in the following paragraph, for example at 36±2° C. for 16-20 hours in ambient air) the result is read and interpreted.\nTest Procedure • Take a panel from its envelope and leave it at room temperature for 10 min. • Prepare a suspension of the test organism using either the direct colony suspension or growth method. • Standardize the suspension to the density of a McFarland 0.5 standard. • Optimally within 15 min of preparation, dilute the adjusted suspension 1:10 in saline. • Dispense 2 μl of the inoculum solution over the agar surface (*) into each well (the final inoculums concentration should be approximately 10^4 CFU per spot). […]\nAt the end of the incubation period observe the growth in the wells and establish the MIC, i.e. the lowest concentration of antibiotic that inhibits visible growth.\nDisregard single colonies or faint haze caused by the inoculum", "data": [{"smiles": "C[C@@H]1O[C@@H]1P(=O)(O)O", "note": "[fosfomycin]", "values": [{"measurement": "MIC", "setting": "48 h, FIG. 2d", "result": 64, "unit": "µg/mL"}, {"measurement": "growth observed in well", "setting": "FIG. 2E, at 1 μg/ml", "result": "faint haze"}, {"measurement": "MIC", "setting": "FIG. 2a", "result": 0.5, "unit": "µg/mL"}, {"measurement": "MIC", "setting": "FIG. 2b", "result": 16, "unit": "µg/mL"}, {"measurement": "MIC", "setting": "FIG. 2c", "result": 2, "unit": "µg/mL"}]}]}
